Test results reported in US11542508B2, “Isolated polynucleotides and polypeptides and methods of using same for expressing an expression product of interest” (priority 2016, dated 2023).

Assays:
phi3T = experiment: Sequencing-based assay for lysogeny; format: cell-based, B. subtilis 168; conditions: 60 minutes post infection, phi3T MOI=2, peptide 1 μM; 18% (±3.3%) without peptide
Procedure: An overnight culture of bacteria was diluted 1/100 until reaching O.D 600 nm=0.1. Medium was replaced as described above [LB supplemented with 0.1 mM MnCl2 and 5 mM MgCl2 with or without SAIRGA (SEQ ID NO: 269)], and incubated for 1 hour at room temperature. Bacteria were infected by phi3T at multiplicity of infection (MOI)=2. Cell pellets were collected at 5, 10, 20 and 60 minutes post infection in the presence or absence of SAIRGA (SEQ ID NO: 269) peptide at 1 μM final concentration in the medium. DNA was extracted using QIAGEN DNeasy blood and tissue kit (CAT #69504) and subjected to Illumina-based whole genome sequencing on NextSeq500. The relative abundance of lysogens in each sample was estimated using the number of reads mapped to the uninterrupted integration site versus reads mapped to the integration junction spanning the prophage DNA on one end and the bacterial DNA on the other end.

AimR = AimR (Bacillus phage phi3T, UniProt P0DOE3); experiment: ChIP-seq of His-tagged AimR on phage DNA; format: cell-based; conditions: 15 minutes after phage infection, with or without 1 μM peptide
Sequence of AimR (P0DOE3 whole entry): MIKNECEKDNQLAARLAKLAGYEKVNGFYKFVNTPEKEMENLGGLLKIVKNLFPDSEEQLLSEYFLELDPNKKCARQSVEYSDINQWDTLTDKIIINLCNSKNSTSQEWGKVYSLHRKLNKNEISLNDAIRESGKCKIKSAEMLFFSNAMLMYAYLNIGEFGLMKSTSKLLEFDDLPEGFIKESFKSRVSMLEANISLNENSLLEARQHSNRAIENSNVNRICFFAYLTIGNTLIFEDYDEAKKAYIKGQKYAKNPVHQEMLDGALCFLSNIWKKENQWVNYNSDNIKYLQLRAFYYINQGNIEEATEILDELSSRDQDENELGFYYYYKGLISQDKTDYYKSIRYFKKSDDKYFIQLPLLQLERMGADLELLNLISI
Procedure: For the ChIP-seq experiments, B. subtilis cell cultures were grown in 100 ml to O.D of 0.1 in LB at 37° C. Following, 50 ml of culture was centrifuged at 4000 rpm for 10 minutes at room temperature. The pellets were then suspended with 25 ml LB either containing or lacking the peptide (SAIRGA, SEQ ID NO: 269) at a final concentration of 1 μM. The cultures were placed for an additional incubation hour at room temperature with shaking. The cultures were then infected with phage (MOI=0.5) having a final plaque forming units (PFU) of 5×10^7 PFU/ml phages. 15 minutes post phage infection the cultures were centrifuged at 3000 g for 5 minutes at 4° C. The supernatant was discarded and the pellets were resuspended with 1 ml of ice-cold 1×PBS (10 mM Phosphate, 137 mM NaCl, 2.7 mM KCl, pH of 7.4).
For the formaldehyde fixation of protein to DNA, the 1 ml PBS resuspended pellets were mixed with 62.5 μl formaldehyde (Thermoscientific 16% formaldehyde solution (w/v) methanol-free ampule) yielding a final formaldehyde concentration of 1% (w/v) within the solution. The formaldehyde-containing cell suspension was incubated at room temperature for 10 minutes with mild agitation. Following, 75 μl 2M Glycine (f.c. 150 mM) was added to quench residual formaldehyde. Glycine-containing samples were kept on ice for an additional 10 minutes followed by centrifugation at 5500 g for 1 minute at 4° C. […]

[1] = system: Bacillus subtilis BEST7003 containing Construct #1; experiment: GFP reporter expression, Construct #1; format: cell-based; conditions: Construct #1, peptide 62.5 nM-1000 nM in LB
Procedure: Starter growths of wild type (WT) Bacillus subtilis BEST7003 strain and of Bacillus subtilis BEST7003 strains containing Construct #1 or Construct #2 were cultured in 3 ml Luria-Bertani (LB) broth until the growth curve indicated stationary phase. Following, the bacterial cells were diluted in a ratio of 1/100 in LB broth or LB broth supplemented with a SAIRGA (SEQ ID NO: 269) peptide at a concentration range of 62.5 nM-1000 nM. Optical density (O.D. at 600 nm) and GFP fluorescence levels (488 nm excitation/518 nm emission) were measured over time in a 96 wells plate using a TECAN Infinite 200 plate reader.

Structure (SMILES): CC[C@H](C)[C@H](NC(=O)[C@H](C)NC(=O)[C@@H](N)CO)C(=O)N[C@@H](CCCNC(=N)N)C(=O)NCC(=O)N[C@@H](C)C(=O)O [SAIRGA, Ser-Ala-Ile-Arg-Gly-Ala]
- bacteria lysogenized (phi3T): 48% (±7.9%)
- binding of AimR to its site in the phage genome (ChIP-seq) (AimR): this binding only occurred when the arbitrium peptide was absent
- GFP fluorescence in presence of peptide [1]: fluorescence gradually repressed in a manner proportional to the concentration of the peptide
